The values that follow come from patent US12269902B2, “Peptide compounds and peptide conjugates for the treatment of cancer through receptor-mediated chemotherapy” (TRANSFERT PLUS, S.E.C., priority 2015, dated 2025).

In series [1] the test system is SKOV3 cancer cells. In words: SKOV3 luciferase subcutaneous xenograft tumour model (Docetaxel, KBA-105). Particulars: mice, Docetaxel 10 mg/kg/week, 3 treatments. As for the experimental part: Mice were implanted in the flank with SKOV3 cancer cells. Tumor growth was monitored by luminescence using the Near Infrared imaging system from Carestream.
Results are expressed in terms of luminescence intensity as a function of post-treatment days.
To further evaluate the in vivo efficacy of the Katana-drug conjugate, SKOV3 cancer cells expressing luciferase were implanted in the mouse flank. […] Tumour imaging was performed on different days by injecting the luciferase substrate luciferin and by using the Xtreme imaging system from Carestream.
Luminescence was then quantified and plotted as a function of days after implantation (FIG. 23).
SKOV3 cancer cells (2.5×10^6 cells) expressing luciferase were implanted in the right flank of mice. Tumour growth was monitored using near infrared (NiR) imaging system from Carestream by injecting the luciferase substrate luciferin. […] Luminescence associated with tumour growth of SKOV3/Luc cancer cells was quantified as a function of post-treatment days with the instrument software.

Series [2] concerns A-375 skin cancer cells. Nature of the series: [3H]-Thymidine incorporation cell proliferation assay, A-375. Type of series: cell-based. The settings on record: Homo sapiens; A-375 (Skin); Table 4; 2 or 3 days. As for the experimental part: (§1) The effect of the Docetaxel-Katana peptide conjugate on various cell line proliferations was evaluated and compared to unconjugated Docetaxel (Table 4). IC50 values obtained for the Docetaxel-Katana peptide conjugate were very similar to those of Docetaxel in the cancer cells tested.
(§2) The phytochemical Curcumin, unconjugated and conjugated, was also tested on cancer cell proliferation (FIG. 28). Breast cancer cells (MDA-MB231) were incubated with increasing concentrations of KBC106 or curcumin. After 72 hrs, thymidine incorporation assay was performed to assess the anti-proliferative properties of both molecules. IC50 values were extracted from the anti-proliferative curves. […] Proliferation assay was also performed using different types of cancer cells (ovarian, breast, skin and colorectal cancer cells). IC50 values were calculated from the anti-proliferation curves. In all cases, the Curcumin conjugate (KBC106) had stronger anti-proliferative activity (9-100 fold) than unconjugated Curcumin, as shown in Table 6 below.
(§3) Cancer cells were cultured in 96-well white plates (Perkin Elmer). They were synchronized for 24 hours in serum-deprived medium. After incubation of cells with unconjugated drugs (docetaxel, cabazitaxel, doxorubicin) or with drug-Katana peptide conjugates for 2 or 3 days, all media was aspirated and cells were pulse-labeled for 4 hours at 37° C./[…]/5% CO2 with media containing 2.5 μCi/mL [methyl-3H] thymidine (Perkin Elmer). Cells were washed, fixed, and dried before addition of scintillation fluid (Microscint 0, Perkin Elmer). After 24 hours, cell-associated tritium was quantified by counting on a plate reader (TopCount, Perkin Elmer). Incorporated [3H] thymidine was plotted for each drug concentration.
On the technique in general: Uptake of a labelled nucleoside into DNA is a usual measure of proliferation.

Series [3] relates to SK-MEL-28 skin cancer cells. In words: [3H]-Thymidine incorporation cell proliferation assay, SK-MEL-28. The settings on record: Homo sapiens; SK-MEL-28 (Skin); Table 4; 2 or 3 days. Type of series: cell-based. As for the experimental part:
as §1, §2, §3

Series [4] can be described thus: Tissue distribution of radiolabeled compounds in mice. The settings on record: iv bolus, equivalent dose of Docetaxel (Docetaxel 2.2, KBA105 5 mg/kg). As to the method: CD-1 mice were injected with the radiolabeled conjugate at 5 mg/kg via iv bolus injections (21A) or […] of radiolabeled Docetaxel (21B). At the indicated times (1 h, 6 h, 24 h) mice were sacrificed and perfused with saline for 8 min. Tissues were then collected and radioactivity was measured. Results are expressed in terms of ng/g of tissue.
At the indicated times (1, 6 and 24 hours), whole body perfusion was performed for 8 min with saline at a flow rate of 8 ml/min after […] hours iv bolus injections.
After radiolabeling free iodine was remove. Mice were injected with Docetaxel-[^125I]-Katana peptide conjugate at 5 mg/kg. Plasma was collected at the indicated times. After 1, 2 and 24 hours some mice were perfused with saline, sacrificed and tissues were collected. Radioactivity in the plasma and tissues were measured in a radioactivity counter and results were calculated and expressed in terms of […] for the plasma or ng/g of tissues.

The target of series [5] is P-gp (MDR1) (Homo sapiens, UniProt P08183). In words: Drug accumulation in MDCK-MDR1 cells with or without Cyclosporin A. Particulars: 50 nM, 1 hr, 37° C., CsA 10 μM. As for the experimental part: 6A. […] 6B. MDCK-MDR1 cells were incubated with 50 nM of either [^14C]-Doxorubicin or [^125I]-Katana peptide-Doxorubicin conjugate (KBB106) for 1 hr at 37° C. in the presence or absence of CsA (10 μM). After the incubation, cells were washed and radioactivity accumulated in cells was quantified. The results were expressed in terms of uptake fmol/mg of protein.
In order to determine whether the anticancer drug-Katana-peptide conjugates could also be P-gp substrates, MDCK-transfected cells with human MDR1 were used (MDCK-MDR1).
Cells were washed three times with PBS and preincubated for 30 min at 37° C. in culture medium without serum with or without the P-gp inhibitor Cyclosporin A (10 μM). Radiolabelled molecules (50 nM) were then added for 60 min. The cells were rapidly washed three times with ice-cold PBS and then lysed in 500 µL of 0.1 M NaOH. The amount of radiolabelled molecules retained in the cells was counted by β-scintillation counting (Packard model 1900 TR). An aliquot of cell lysate was used in parallel to determine cellular protein concentration.

For series [6], the system named is MDA-MB-231 breast cancer cells. Nature of the series: cells. The settings on record: Homo sapiens, MDA-MB-231. As to the method:
Breast cancer cells (MDA-MB231) were incubated with increasing concentrations of KBC106 or curcumin. After 72 hrs, thymidine incorporation assay was performed to assess the anti-proliferative properties of both molecules. IC50 values were extracted from the anti-proliferative curves.
The phytochemical Curcumin, unconjugated and conjugated, was also tested on cancer cell proliferation (FIG. 28). Breast cancer cells (MDA-MB231) were incubated with increasing concentrations of KBC106 or curcumin. After 72 hrs, thymidine incorporation assay was performed to assess the anti-proliferative properties of both molecules. IC50 values were extracted from the anti-proliferative curves. […] Proliferation assay was also performed using different types of cancer cells (ovarian, breast, skin and colorectal cancer cells). IC50 values were calculated from the anti-proliferation curves.
as §3

In series [7] the test system is MDA-MB231 breast cancer cells. In words: MDA-MB231 luciferase breast subcutaneous tumors (Docetaxel, KBA106). In kind it is in vivo, mice. As for the experimental part:
27A. Mice were implanted in the flank with MDA-MB231 breast cancer cells expressing luciferase. Tumor growth by luminescence was visualized using an in vivo imaging system from Carestream. Mice were treated with vehicle, Docetaxel (15 mg/kg/week) or KBA106 (50 mg/kg/week). Initial luminescence intensity was subtracted. 27B. […] No value was available (N/A) for the mice treated with the vehicle since all mice were then sacrificed because the size of their tumors reached the endpoint limit. 27C. Tumor luminescence results were expressed in terms of percentage of progression on D74 post-treatment compared to initial tumor luminescence. In the Docetaxel group, the tumor luminescence increased by 100% whereas in the KBA106 treated group the luminescence decreased by 100%.
Residual tumor burden was assessed in Docetaxel and Docetaxel conjugate treated mice (FIG. 27). Mice were implanted in the flank with MDA-MB231 breast cancer cells expressing luciferase. Tumor growth by luminescence was visualized using an in vivo imaging system from Carestream. Mice were treated with vehicle, Docetaxel (15 mg/kg/week) or KBA106 (50 mg/kg/week).

The conditions of series [8]: free Docetaxel; Assessment report for Docetaxel Teva, European Medicines Agency; cited from earlier work.
Series [9] has as its system ES-2 ovarian cancer cells. Nature of the series: [3H]-Thymidine incorporation cell proliferation assay, ES-2. Particulars: ES-2 (Ovary); Table 4; 2 or 3 days. In kind it is cell-based. As to the method: as §1, §2, §3
Series [10] relates to ovarian (SKOV3 and ES-2) cancer cells. Nature of the series: Cell migration assay by xCELLigence biosensor system, ovarian cancer cells. Particulars: 2 hours incubation, 2 μM. Type of series: cell-based. As for the experimental part: 15A. Cells were incubated for 2 hrs with increasing concentration of Doxorubicin or conjugated Doxorubicin (KBB106) and cell migration was performed. 15B. […] 15C. Progranulin (PGR), a sortilin ligand, also reversed the effect of the Doxorubicin conjugate (KBB106) on ovarian cancer cell (ES-2) migration.
This second cellular assay was also used to screen the different Katana-drug conjugates (FIG. 15). […] However, as shown in FIGS. 15B and 15C, when the cancer cells were incubated with conjugated Doxorubicin (KBB106) in the presence of a sortilin ligand (Neurotensin, Katana peptide or progranulin), the migratory effect of the Doxorubicin conjugate was reversed.
Experiments were carried out using the Real-Time Cell Analyser (RTCA) Dual-Plate (DP) Instrument, the xCELLigence system (Roche Diagnostics, QC). This system was used according to the instructions of the supplier. Then, cells (25 000 cells/well) were seeded in serum-free medium onto a CIM-Plates 16 (Roche diagnostics). […] After 30 min of adhesion, cell migration was monitored every 5 min for 8 h. The impedance value was measured by the RTCA DP Instrument and was expressed as an arbitrary unit called the Cell Index which reflecting the amount of migration-active cells. […]

Non-standard residues stand in square brackets, D forms with d. Residues, ends and D or L forms follow the SMILES beside them. *: point of attachment. X1 = CC(=O)O[C@@]12CO[C@@H]1C[C@H](O)[C@@]1(C)C(=O)[C@H](O)C3=C(C)[C@@H](OC(=O)[C@H](OC(=O)CCC(=O)*)[C@@H](NC(=O)OC(C)(C)C)c4ccccc4)C[C@@](O)([C@@H](OC(=O)c4ccccc4)[C@H]21)C3(C)C; Nle = CCCC[C@H](N)C(=O)O

P-gp (MDR1), sequence (P08183 whole entry): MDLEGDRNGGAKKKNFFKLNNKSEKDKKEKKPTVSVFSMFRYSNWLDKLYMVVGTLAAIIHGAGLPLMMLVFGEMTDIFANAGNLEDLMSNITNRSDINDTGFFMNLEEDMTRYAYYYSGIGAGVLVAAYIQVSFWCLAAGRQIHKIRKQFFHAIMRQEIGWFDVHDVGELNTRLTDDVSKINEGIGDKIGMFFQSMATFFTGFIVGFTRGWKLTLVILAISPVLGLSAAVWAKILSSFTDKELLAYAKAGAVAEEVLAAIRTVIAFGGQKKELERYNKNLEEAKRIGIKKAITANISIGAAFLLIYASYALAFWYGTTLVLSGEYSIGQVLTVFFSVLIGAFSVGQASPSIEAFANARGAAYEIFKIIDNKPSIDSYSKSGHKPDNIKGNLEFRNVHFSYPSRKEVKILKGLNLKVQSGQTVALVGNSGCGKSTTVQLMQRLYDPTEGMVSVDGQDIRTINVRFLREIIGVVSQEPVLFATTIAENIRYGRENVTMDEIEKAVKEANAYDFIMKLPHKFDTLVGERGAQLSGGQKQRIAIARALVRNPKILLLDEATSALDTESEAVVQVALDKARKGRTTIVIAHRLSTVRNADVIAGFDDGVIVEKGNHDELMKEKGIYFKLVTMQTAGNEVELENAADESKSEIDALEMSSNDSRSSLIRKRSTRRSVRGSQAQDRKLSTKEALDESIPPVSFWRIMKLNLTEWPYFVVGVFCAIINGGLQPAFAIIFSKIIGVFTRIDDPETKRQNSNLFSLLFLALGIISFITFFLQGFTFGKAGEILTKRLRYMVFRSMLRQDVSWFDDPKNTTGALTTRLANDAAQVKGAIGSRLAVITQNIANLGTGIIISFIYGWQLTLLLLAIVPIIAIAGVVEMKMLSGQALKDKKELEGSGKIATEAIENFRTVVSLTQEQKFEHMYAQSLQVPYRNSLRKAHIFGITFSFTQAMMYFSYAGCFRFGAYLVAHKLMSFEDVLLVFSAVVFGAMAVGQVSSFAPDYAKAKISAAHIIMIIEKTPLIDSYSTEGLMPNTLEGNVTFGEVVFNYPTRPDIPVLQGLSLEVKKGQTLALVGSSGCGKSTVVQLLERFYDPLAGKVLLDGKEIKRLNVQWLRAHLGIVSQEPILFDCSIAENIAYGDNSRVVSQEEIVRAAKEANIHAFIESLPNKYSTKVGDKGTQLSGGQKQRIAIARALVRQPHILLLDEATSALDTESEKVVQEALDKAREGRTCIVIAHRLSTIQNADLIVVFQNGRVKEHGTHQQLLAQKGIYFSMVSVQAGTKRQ

For the molecule `CC(=O)O[C@@]12CO[C@@H]1C[C@H](O)[C@@]1(C)C(=O)[C@H](O)C3=C(C)[C@@H](OC(=O)[C@H](O)[C@@H](NC(=O)OC(C)(C)C)c4ccccc4)C[C@@](O)([C@@H](OC(=O)c4ccccc4)[C@H]21)C3(C)C` [Docetaxel, docetaxel, reference compound], in [1], the body weight loss was ~20%. Also, the half-maximal inhibitory concentration (IC50) (commonly the concentration at which inhibition is half-maximal) in series [2] is 0.92 nM; in series [3], 0.69 nM; in [6], 0.68 nM; in series [9] it was 1.3 nM. The “Area under the curve (AUC1-24)” value in series [4] (Brain) is 34 ng·h/mL; in [4] (Heart), 656 ng·h/mL; in series [4] (Kidney), 1072 ng·h/mL; in series [4] (Liver), 652 ng·h/mL; in [4] (Lung), 614 ng·h/mL; in series [4] (Mammary) it was 823 ng·h/mL. The figures for the “Area under the curve (AUC1-24)” value in series [4] (Ovary) and in [4] (Spleen) were 1523 ng·h/mL and 457 ng·h/mL, respectively. Moreover, the “increase of accumulation in the presence of cyclosporin A” value in series [5] came to 2 fold. Moreover, in series [7] (D74 post-treatment, Docetaxel 15 mg/kg/week), the “tumor luminescence increase compared to initial tumor luminescence” value came to 100%. In addition, the “plasma half-life reported in the literature” value in [8] was 1 h.
As for `CCCC[C@H](NC(=O)[C@H](CC(N)=O)NC(=O)[C@H](CCCNC(=N)N)NC(=O)[C@@H](NC(=O)CNC(=O)[C@H](C)NC(=O)[C@H](CCCCNC(=O)CCC(=O)O[C@@H](C(=O)O[C@H]1C[C@@]2(O)[C@@H](OC(=O)c3ccccc3)[C@@H]3[C@]4(OC(C)=O)CO[C@@H]4C[C@H](O)[C@@]3(C)C(=O)[C@H](O)C(=C1C)C2(C)C)[C@@H](NC(=O)OC(C)(C)C)c1ccccc1)NC(=O)[C@H](C)NC(=O)[C@H](CCCNC(=N)N)NC(=O)[C@@H](NC(=O)CNC(C)=O)C(C)C)C(C)C)C(=O)N[C@@H](Cc1ccccc1)C(=O)N[C@@H](CCCCNC(=O)CCC(=O)O[C@@H](C(=O)O[C@H]1C[C@@]2(O)[C@@H](OC(=O)c3ccccc3)[C@@H]3[C@]4(OC(C)=O)CO[C@@H]4C[C@H](O)[C@@]3(C)C(=O)[C@H](O)C(=C1C)C2(C)C)[C@@H](NC(=O)OC(C)(C)C)c1ccccc1)C(=O)N[C@@H](CO)C(=O)N[C@@H](CCC(=O)O)C(=O)N[C@@H](CO)C(=O)N[C@@H](Cc1ccc(O)cc1)C(=O)O` [KBA-106, Acetyl-GVRAK(docetaxel)AGVRN(Nle)FK(docetaxel)SESY] (Ac-GVRAK(X1)AGVRN[Nle]FK(X1)SESY-OH; C-terminus assumed), the “effect on cell migration” value in [10] was “almost completely abolished the cellular capacity of these cells to migrate”. Also, the “tumor luminescence decrease compared to initial tumor luminescence” value in [7] (D74 post-treatment, KBA106 50 mg/kg/week) was determined as 100%. Also, in [7] (Day 74 post-treatment, KBA106 50 mg/kg/week), the “residual tumor burden (remaining luminescence)” value is “no luminescence was detectable”.
